Where “and” joins values, the source holds several entries; their conditions need not be identical. Identical values can stand only once. Toxic doses and inconclusive results are not listed.
System: CD2F1 mice, L1210 leukemia sc, survival T/C
Assay: NCI In Vivo Anticancer Drug Screen. Data for tumor model L1210 Leukemia (subcutaneous) in CD2F1 (CDF1) mice
Conditions: endpoint: median survival time, higher = longer survival
In short: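 Mice with transplanted tumor dosed; survival/tumor size read; T/C vs vehicle controls.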

[1] = dose: 12.5 mg/kg/injection, schedule: Q01DX009 (ip), vehicle: saline
[2] = dose: 25.0 mg/kg/injection, schedule: Q01DX009 (ip), vehicle: saline
[3] = dose: 50.0 mg/kg/injection, schedule: Q01DX009 (ip), vehicle: saline

Q: Which T/C [1] does the source give for `Cc1c(-c2ccc(-c3ccccc3F)cc2)nc2ccc(F)cc2c1C(=O)O` here?
A: Its T/C is 153 % of control.

Q: What about the T/C [2] of the same molecule?
A: The T/C was 156 % of control.

Q: And the T/C [3]?
A: Its T/C is 150 % of control.

Q: `CN1CCN(c2ccc3nc(-c4ccc5nc(-c6ccc(O)cc6)[nH]c5c4)[nH]c3c2)CC1` was tested. Which T/C (dose: 4.7 mg/kg/injection, schedule: Q03HX024 (ip), vehicle: saline) did it give?
A: The T/C was 102 % of control.

Q: And the T/C (dose: 9.4 mg/kg/injection, schedule: Q03HX024 (ip), vehicle: saline)?
A: The T/C was 107 % of control.

Q: What about the T/C (dose: 14.0 mg/kg/injection, schedule: Q03HX008 (ip), vehicle: saline) of the same molecule?
A: The T/C was 102 % of control.

Q: What about the T/C (dose: 18.75 mg/kg/injection, schedule: Q03HX024 (ip), vehicle: saline) of the same molecule?
A: Its T/C is 110 % of control.

Q: What about the T/C (dose: 28.0 mg/kg/injection, schedule: Q03HX008 (ip), vehicle: saline) of the same molecule?
A: Its T/C is 113 % of control.

Q: What about the T/C (dose: 37.5 mg/kg/injection, schedule: Q03HX024 (ip), vehicle: saline) of the same molecule?
A: The T/C was 119 % of control.

Q: And the T/C (dose: 37.5 mg/kg/injection, schedule: Q04DX003 (ip), vehicle: saline)?
A: The T/C was 101 % of control.

Q: And the T/C (dose: 75.0 mg/kg/injection, schedule: Q04DX003 (ip), vehicle: saline)?
A: The T/C was 107 % of control.

Q: What about the T/C (dose: 112.0 mg/kg/injection, schedule: Q01DX001 (ip), vehicle: suspension in saline) of the same molecule?
A: The T/C was 104 % of control.

Q: And the T/C (dose: 150.0 mg/kg/injection, schedule: Q04DX003 (ip), vehicle: saline)?
A: The T/C was 110 % of control.

Q: With `COc1ccc2c(c1OC)C(=O)O[C@@H]2[C@H]1c2c(cc3c(c2OC)OCO3)CCN1C` as the molecule, how does the T/C (dose: 14.0 mg/kg/injection, schedule: Q01DX Z (sc), vehicle: water) read?
A: The T/C was 100 % of control.

Q: And the T/C (dose: 23.0 mg/kg/injection, schedule: Q01DX Z (sc), vehicle: water)?
A: The T/C was 100 % of control.

Q: And the T/C (dose: 39.0 mg/kg/injection, schedule: Q01DX Z (sc), vehicle: water)?
A: The T/C was 100 % of control.

Q: What about the T/C (dose: 65.0 mg/kg/injection, schedule: Q01DX Z (sc), vehicle: water) of the same molecule?
A: Its T/C is 100 % of control.

Q: What about the T/C (dose: 108.0 mg/kg/injection, schedule: Q01DX Z (sc), vehicle: water) of the same molecule?
A: Its T/C is 100 % of control.

Q: What about the T/C (dose: 180.0 mg/kg/injection, schedule: Q01DX Z (sc), vehicle: water) of the same molecule?
A: The T/C was 100 % of control.

Q: What about the T/C (dose: 300.0 mg/kg/injection, schedule: Q01DX Z (sc), vehicle: water) of the same molecule?
A: Its T/C is 100 % of control.

Q: What about the T/C (dose: 500.0 mg/kg/injection, schedule: Q01DX Z (sc), vehicle: water) of the same molecule?
A: The T/C was 100 % of control.

Q: Which T/C (dose: 3.0 mg/kg/injection, schedule: Q01DX Z (sc), vehicle: other) does the source give for `O=C/C(Br)=C(/Br)C(=O)O` here?
A: Its T/C is 100 % of control.

Q: What about the T/C (dose: 5.0 mg/kg/injection, schedule: Q01DX Z (sc), vehicle: other) of the same molecule?
A: The T/C was 100 % of control.

Q: What about the T/C (dose: 8.4 mg/kg/injection, schedule: Q01DX Z (sc), vehicle: other) of the same molecule?
A: The T/C was 100 % of control.

Q: What about the T/C (dose: 14.0 mg/kg/injection, schedule: Q01DX Z (sc), vehicle: other) of the same molecule?
A: The T/C was 100 % of control.

Q: And the T/C (dose: 39.0 mg/kg/injection, schedule: Q01DX Z (sc), vehicle: other)?
A: The T/C was 100 % of control.

Q: For `O=P1(N(CCCl)CCCl)NCCCO1` (stereo not given), which T/C (dose: 6.25 mg/kg/injection, schedule: Q01DX009 (ip), vehicle: saline) is on record?
A: The T/C was 103 % of control.

Q: What about the T/C (dose: 6.25 mg/kg/injection, schedule: Q01DX009 (sc), vehicle: saline) of the same molecule?
A: Its T/C is 107 % of control.

Q: And the T/C [1]?
A: Its T/C is 106 % of control and 107 % of control.

Q: What about the T/C (dose: 12.5 mg/kg/injection, schedule: Q01DX009 (sc), vehicle: saline) of the same molecule?
A: Its T/C is 110 % of control.

Q: And the T/C (dose: 23.0 mg/kg/injection, schedule: Q01DX Z (sc), vehicle: saline)?
A: Its T/C is 210 % of control.

Q: What about the T/C [2] of the same molecule?
A: Its T/C is 151 % of control.

Q: What about the T/C (dose: 39.0 mg/kg/injection, schedule: Q01DX Z (sc), vehicle: saline) of the same molecule?
A: The T/C was 221 % of control.

Q: What about the T/C (dose: 39.0 mg/kg/injection, schedule: Q08DX003 (ip), vehicle: none) of the same molecule?
A: The T/C was 118 % of control.

Q: And the T/C (dose: 39.0 mg/kg/injection, schedule: Q08DX003 (sc), vehicle: saline)?
A: The T/C was 116 % of control.

Q: And the T/C [3]?
A: Its T/C is 165 % of control and 173 % of control and 177 % of control.

Q: What about the T/C (dose: 50.0 mg/kg/injection, schedule: Q01DX009 (sc), vehicle: saline) of the same molecule?
A: The T/C was 191 % of control.

Q: What about the T/C (dose: 65.0 mg/kg/injection, schedule: Q01DX Z (sc), vehicle: saline) of the same molecule?
A: Its T/C is 236 % of control.

Q: What about the T/C (dose: 65.0 mg/kg/injection, schedule: Q07DX003 (ip), vehicle: saline) of the same molecule?
A: Its T/C is 123 % of control.

Q: What about the T/C (dose: 65.0 mg/kg/injection, schedule: Q08DX003 (ip), vehicle: none) of the same molecule?
A: The T/C was 188 % of control.

Q: And the T/C (dose: 65.0 mg/kg/injection, schedule: Q08DX003 (sc), vehicle: saline)?
A: Its T/C is 172 % of control.

Q: What about the T/C (dose: 65.0 mg/kg/injection, schedule: Q## X Z (sc), vehicle: saline) of the same molecule?
A: The T/C was 215 % of control.

Q: What about the T/C (dose: 100.0 mg/kg/injection, schedule: Q01DX009 (ip), vehicle: saline) of the same molecule?
A: Its T/C is 222 % of control and 247 % of control and 89 % of control.

Q: And the T/C (dose: 100.0 mg/kg/injection, schedule: Q01DX009 (sc), vehicle: saline)?
A: The T/C was 259 % of control.

Q: And the T/C (dose: 108.0 mg/kg/injection, schedule: Q01DX001 (sc), vehicle: saline)?
A: Its T/C is 164 % of control and 166 % of control and 168 % of control.

Q: What about the T/C (dose: 108.0 mg/kg/injection, schedule: Q01DX Z (sc), vehicle: saline) of the same molecule?
A: Its T/C is 189 % of control.

Q: What about the T/C (dose: 108.0 mg/kg/injection, schedule: Q07DX003 (ip), vehicle: saline) of the same molecule?
A: The T/C was 183 % of control.

Q: And the T/C (dose: 108.0 mg/kg/injection, schedule: Q07DX003 (sc), vehicle: saline)?
A: Its T/C is 211 % of control and 217 % of control.

Q: And the T/C (dose: 108.0 mg/kg/injection, schedule: Q07DX Z (sc), vehicle: saline)?
A: The T/C was 226 % of control.

Q: What about the T/C (dose: 108.0 mg/kg/injection, schedule: Q08DX003 (ip), vehicle: none) of the same molecule?
A: The T/C was 241 % of control.

Q: And the T/C (dose: 108.0 mg/kg/injection, schedule: Q08DX003 (sc), vehicle: saline)?
A: The T/C was 227 % of control.

Q: And the T/C (dose: 108.0 mg/kg/injection, schedule: Q## X Z (sc), vehicle: saline)?
A: The T/C was 231 % of control.

Q: And the T/C (dose: 180.0 mg/kg/injection, schedule: Q01DX001 (sc), vehicle: saline)?
A: Its T/C is 197 % of control and 200 % of control (2×).

Q: And the T/C (dose: 180.0 mg/kg/injection, schedule: Q01DX Z (sc), vehicle: saline)?
A: The T/C was 152 % of control.

Q: And the T/C (dose: 180.0 mg/kg/injection, schedule: Q07DX003 (ip), vehicle: saline)?
A: The T/C was 274 % of control.

Q: What about the T/C (dose: 180.0 mg/kg/injection, schedule: Q07DX003 (sc), vehicle: saline) of the same molecule?
A: The T/C was 355 % of control and 373 % of control.

Q: And the T/C (dose: 180.0 mg/kg/injection, schedule: Q07DX Z (sc), vehicle: saline)?
A: The T/C was 284 % of control.

Q: And the T/C (dose: 180.0 mg/kg/injection, schedule: Q08DX003 (ip), vehicle: none)?
A: Its T/C is 288 % of control.

Q: What about the T/C (dose: 180.0 mg/kg/injection, schedule: Q08DX003 (sc), vehicle: saline) of the same molecule?
A: Its T/C is 283 % of control.

Q: What about the T/C (dose: 180.0 mg/kg/injection, schedule: Q## X Z (sc), vehicle: saline) of the same molecule?
A: The T/C was 263 % of control.

Q: What about the T/C (dose: 300.0 mg/kg/injection, schedule: Q01DX001 (sc), vehicle: saline) of the same molecule?
A: The T/C was 242 % of control and 244 % of control and 252 % of control.

Q: What about the T/C (dose: 300.0 mg/kg/injection, schedule: Q07DX003 (ip), vehicle: saline) of the same molecule?
A: Its T/C is 274 % of control.

Q: What about the T/C (dose: 300.0 mg/kg/injection, schedule: Q07DX003 (sc), vehicle: saline) of the same molecule?
A: The T/C was 283 % of control and 296 % of control.

Q: And the T/C (dose: 300.0 mg/kg/injection, schedule: Q07DX Z (sc), vehicle: saline)?
A: Its T/C is 231 % of control.

Q: And the T/C (dose: 300.0 mg/kg/injection, schedule: Q08DX003 (ip), vehicle: none)?
A: Its T/C is 222 % of control.

Q: What about the T/C (dose: 300.0 mg/kg/injection, schedule: Q08DX003 (sc), vehicle: saline) of the same molecule?
A: The T/C was 205 % of control.

Q: What about the T/C (dose: 500.0 mg/kg/injection, schedule: Q01DX001 (sc), vehicle: saline) of the same molecule?
A: The T/C was 120 % of control and 221 % of control.

Q: And the T/C (dose: 500.0 mg/kg/injection, schedule: Q## X Z (sc), vehicle: saline)?
A: Its T/C is 152 % of control.

Q: And the T/C (dose: 833.0 mg/kg/injection, schedule: Q01DX001 (sc), vehicle: saline)?
A: The T/C was 210 % of control.

Q: And the T/C (dose: 833.0 mg/kg/injection, schedule: Q07DX Z (sc), vehicle: saline)?
A: The T/C was 157 % of control.

Q: `CN(C)c1ccc(/C=C2\C=Cc3ccccc32)cc1` was tested. Which T/C (dose: 39.0 mg/kg/injection, schedule: Q01DX Z (sc), vehicle: carboxymethylcellulose (CMC)) did it give?
A: The T/C was 100 % of control.

Q: And the T/C (dose: 65.0 mg/kg/injection, schedule: Q01DX Z (sc), vehicle: carboxymethylcellulose (CMC))?
A: The T/C was 100 % of control.

Q: What about the T/C (dose: 108.0 mg/kg/injection, schedule: Q01DX Z (sc), vehicle: carboxymethylcellulose (CMC)) of the same molecule?
A: Its T/C is 100 % of control.

Q: And the T/C (dose: 180.0 mg/kg/injection, schedule: Q01DX Z (sc), vehicle: carboxymethylcellulose (CMC))?
A: Its T/C is 100 % of control.

Q: And the T/C (dose: 300.0 mg/kg/injection, schedule: Q01DX Z (sc), vehicle: carboxymethylcellulose (CMC))?
A: The T/C was 100 % of control.

— PubChem BioAssay AID258 (DTP/NCI, 2004)
